pKd: −log10 of the molar value. Entries after “also recorded” stand apart in the source; their conditions may differ.
Experiments:
[1] = target: human CDK2 (1-298) (Homo sapiens, UniProt P24941); experiment: Isothermal titration calorimetry (ITC)
[2] = target: T1, CDK2 (C118A C177S A93C R157C) (Homo sapiens, UniProt P24941, A93C/C118A/C177S/R157C); experiment: Intramolecular FRET assay of CDK2 activation loop position; type: binding
T1 construct: made in house; cyclin A: BL21(DE3)pLysS

[3] = test system: CDK/cyclin complexes; experiment: Commercial CDK/cyclin kinase activity panel (Reaction Biology); type: biochemical; settings: concentration well above its KD
[4] = target: T2, GST-tagged CDK2 (Homo sapiens, UniProt P24941); experiment: Surface plasmon resonance (SPR), CDK2; type: binding
T2 construct: The gene encoding human CDK2 (1-298) was custom-synthesized; made in house; host or cells: E. coli BL21 DE3 RIPL

O=C(O)c1cc(C(F)(F)F)ccc1NCCc1c[nH]c2cc(Cl)ccc12 [Compound 4, 2-((2-(6-Chloro-1H-indol-3-yl)ethyl)amino)−5-(trifluoromethyl)benzoic Acid] was tested. Which pKd [1] did it give?
Its pKd is 7.51.

And the “T∆S” value ([1]; ITC, 25 °C)?
Its value is 4.8 kcal/mol.

What about the “n (binding stoichiometry)” value ([1]; ITC, 25 °C) of the same compound?
The value was 1.39.

And the “∆H” value ([1]; ITC, 25 °C)?
The value was -5.5 kcal/mol.

What about the pKd [2] of the same compound?
Its pKd is 6.55.

What about the “inhibition of CDK/cyclin complexes” value [3] of the same compound?
The value was “poorly inhibits; also recorded: does not substantially inhibit any CDK/cyclin complex”.

How did the “fold slower dissociation rate than the allosteric inhibitors” value [4] turn out when “cyclin: Bovine cyclin A (171-432 with a C-terminal 6His tag)” was run?
Its value is no less than 10 fold.

— PMC10239507, “Development of allosteric and selective CDK2 inhibitors for contraception with negative cooperativity to cyclin binding” (Nature Communications, 2023)
